Test results: patent US6358946B1, “C-6 ring-substituted pyrido[1,2-a]benzimidazole derivatives useful in treating central nervous system disorders” (Ortho-McNeil Pharmaceutical, Inc., priority 1999, dated 2002)
Where a name gives a salt, the structure may show the parent alone. Read-outs that look alike come from different tables or passages of the source.

Experiments:
[1] = system: behavior suppressed by punishment (conflict); assay: Suppression of anxiety in the adult male rat (Vogel conflict test); assay type: in vivo, Male rats; conditions: PO (oral) administration, MED >10 = active dose not determined, read-out: Conf. PO (minimum effective dose, MED)
Experimental: Assay to Measure the Suppression of Anxiety in the Adult Male Rat
The anxiolytic activity of selected compounds of the invention was assessed by determining their ability to release (disinhibit) behavior that had been suppressed by punishment (Vogel, J. R. et al. Psychopharmacology 1971, 21, 1). Male rats were deprived of water for 48 hrs and were deprived of food for 24 hrs prior to testing. After the first 24 hours of water deprivation, they were placed in the conflict chamber for a training period; wherein, they were allowed 200 unpunished licks from a bottle containing tap water. The experiment was run the next day. At the expected time of peak activity, the animals were placed in the chamber and allowed access to tap water. […] Their first lick initiates a 3-min test session. Subsequently, every 20th lick was punished by a 0.2-s shock delivered via the stainless-steel drinking-tube. Vehicle-treated control animals generally were willing to accept a median number of 3 to 8 shocks per test session. […] The Wilcoxon rank-sum test (Mann-Whitney U-test) was used to test for an increase (p<0.05, 1-tailed) in the median number of shocks in drug-treated groups, compared to a concurrently run vehicle-treated group. The biological assay is considered to be valid if the effects of a known anxiolytic (positive control) are detected, within the same experiment. A compound was considered active if there is a significant difference in the median number of shocks tolerated between the drug-treated group and the control group. The minimum effective doses (MED) for the active compounds of the invention are listed in Table 1 under the heading Conf., with PO indicating an oral route of administration. The MED was defined as the minimum dose of the drug-treatment as analyzed using the Wilcoxon rank-sum test (SAS; Statistical Analysis System, version 5.16). If the MED value is greater than 10, an active dose of the compound being tested had not been determined.

[2] = molecular target: benzodiazepine site of the GABA-A receptor; assay: Benzodiazepine receptor binding assay (inhibition of 3H-flunitrazepam binding to membranes); conditions: inhibition of 3H-flunitrazepam (ca. 3 nM) binding; over 10,000 = not active
[3] = system: metrazol-induced clonic convulsions; assay: Suppression of metrazol-induced convulsions in adult male mice; assay type: in vivo, Male CD1 mice; conditions: Mus musculus, block of clonic convulsions after s.c. CD90 dose of metrazol
Experimental: Assay to Determine the Suppression of Metrazol-Induced Convulsions in Adult Male Mice
Compounds of the invention were tested for their ability to reduce metrazol-induced convulsions in mice (Swinyard, E. A. J. Am. Pharm Assoc. 1949, 38, 201). Male CD1 mice, were fasted at least 16 hours, were divided into equal groups and test compounds or vehicle were administered parenterally. Water was not withheld except during the period of observations. At the time of suspected peak activity, anti-pentylenetetrazol (anti-metrazol) activity was evaluated by the subcutaneous administration of the CD90 dose of metrazol (the dose of metrazol was determined from the dose-response curve producing clonic convulsions in 90% of animals that received the corresponding vehicle for this experiment). Metrazol was dissolved in 0.9% sodium chloride solution, and its dose volume was 10 mL/kg. Animals were housed individually for observation of clonic convulsions, tonic convulsions and death for a period of 30 min. Test compounds that blocked the clonic seizure component of the convulsion in at least 50% of the animals were considered active. The biological assay was considered to be valid if the effects of a known anticonvulsant (positive control) were detected, within the same experiment. Activity was reported as percent reduction of clonic convulsions from the vehicle group. The ED50 values of active compounds were calculated by the method of probits (Finney, D. J. Probit Analysis, London: 1971, Cambridge University Press) and are listed in Table 1. […] Compounds active in this screen are considered active anticonvulsion/antiepileptic agents, as well as having potential anxiolytic activity. The data for the test compounds is listed in Table 1 as Met. for either PO (oral) or IP (parenteral) routes of administration.

[4] = PO (oral) administration, read-out: Met. PO (ED50)
[5] = IP (parenteral) administration, read-out: Met. IP (ED50)

SMILES | minimal effective dose [1] [mg/kg] | IC50 [2] [nM] | ED50 [3, 4] [mg/kg] | ED50 [3, 5] [mg/kg] | melting point [°C]
CN1C2=C(C(=O)Nc3ccccc3F)C(=O)CCN2c2cccc(-n3ccnc3)c21 [Compound 13, Pyrido[1,2-a]benzimidazole-4-carboxamide, N-2-fluorophenyl-1,2,3-trihydro-3-oxo5-methyl-6-(1-imidazolyl)-] | > 3 | 0.13 |  |  | 
CN1C2=C(C(=O)Nc3ccccc3F)C(=O)CCN2c2cccc(N3CCCCC3)c21 [Compound 18] | 0.03 to 0.1 | 0.22 | 0.65 |  | 
COc1ccccc1N1CCN(c2cccc3c2NC2=C(C(=O)Nc4ccccc4F)C(=O)CCN23)CC1 [Compound 6] | > 10 | ~1000 |  |  | 
COc1ccc(NC(=O)C2=C3Nc4c(N5CCOCC5)cccc4N3CCC2=O)cc1 [Compound 7] | 0.1 | 2.04 |  |  | 
O=C1CCN2C(=C1C(=O)Nc1ccccc1F)Nc1c(N3CCOCC3)cccc12 [Compound 3] | > 10 | 1.05 | 3 | > 1 | 
COc1ccc(NC(=O)C2=C3Nc4c(N5CCCCC5)cccc4N3CCC2=O)cc1 [Compound 11] | > 3 | 34.8 |  |  | 
CN1C2=C(C(=O)Nc3ccccc3F)C(=O)CCN2c2cccc(N3CCC4(CC3)OCCO4)c21 [Compound 21, Pyrido[1,2-a]benzimidazole-4-carboxamide, N-2-fluorophenyl-1,2,3-trihydro-3-oxo-5-methyl-6-[8-(1,4-dioxa-8-azaspiro[4,6]decanyl)]-] | ≤ 0.3 | 0.13 |  |  | 
O=C1CCN2C(=C1C(=O)Nc1ccccc1F)Nc1c2cccc1-n1ccnc1 [Compound 2, Pyrido[1,2-a]benzimidazole-4-carboxamide, N-2-fluorophenyl-1,2,3,5-tetrahydro-3-oxo-6-(1-imidazolyl)-] | > 10 | 3.48 | ~5 | 1 | 
O=C1CCN2C(=C1C(=O)Nc1c(F)cccc1F)Nc1c(N3CCCCC3)cccc12 [Compound 10, Pyrido[1,2-a]benzimidazole-4-carboxamide, N-(2,6-difluorophenyl)-1,2,3,5-tetrahydro-3-oxo-6-(1-piperidinyl)-] | 3 | 0.41 | 3.64 |  | 
COCC(=O)N1CCN(c2cccc3c2N(C)C2=C(C(=O)Nc4ccccc4F)C(=O)CCN23)CC1 [Compound 22, Pyrido[1,2-a]benzimidazole-4-carboxamide, N-2-fluorophenyl-1,2,3-trihydro-3-oxo-5-methyl-6-[4-(2-methoxyacetyl)-1-piperazinyl]-] | > 3 | 0.24 |  |  | 
O=C1CCN2C(=C1C(=O)Nc1c(F)cccc1F)Nc1c2cccc1-n1ccnc1 [Compound 1] |  | 0.66 | ~10 | ≤ 1 | 
O=C1CCN2C(=C1C(=O)Nc1c(F)cccc1F)Nc1c(N3CCOCC3)cccc12 [Compound 4] | ~0.1 | 0.23 | < 3 | < 1 | 
O=C1CCN2C(=C1C(=O)Nc1c(F)cccc1F)Nc1c(N3CCCCC3)cccc12 (as salt: hydrochloride) [Compound 10, Pyrido[1,2-a]benzimidazole-4-carboxamide, N-(2,6-difluorophenyl)-1,2,3,5-tetrahydro-3-oxo-6-(1-piperidinyl)-] |  |  |  |  | 240 to 241
CN1C2=C(C(=O)Nc3ccccc3F)C(=O)CCN2c2cccc(N3CCSCC3)c21 [Compound 15] | 1 | 0.23 |  |  | 
CN1C2=C(C(=O)Nc3nccs3)C(=O)CCN2c2cccc(-n3ccnc3)c21 [Compound 16] | > 3 | 2.12 |  |  | 
COc1ccccc1N1CCN(c2cccc3c2NC2=C(C(=O)Nc4c(F)cccc4F)C(=O)CCN23)CC1 [Compound 5] | > 10 | < 100 |  |  | 
O=C1CCN2C(=C1C(=O)Nc1nccs1)Nc1c2cccc1-n1ccnc1 [Compound 17] | > 3 | 160 |  |  | 
O=C1CCN2C(=C1C(=O)Nc1ccccc1F)Nc1c(N3CCC4(CC3)OCCO4)cccc12 [Compound 20, Pyrido[1,2-a]benzimidazole-4-carboxamide, N-2-fluorophenyl-1,2,3,5-tetrahydro-3-oxo-6-[8-(1,4-dioxa-8-azaspiro[4,5]decanyl)]-] | 3 | 1.11 | 0.83 |  | 
O=C1CCN2C(=C1C(=O)Nc1ccccc1F)Nc1c(N3CCCCC3)cccc12 [Compound 9] | ≤ 3 | 69.5 |  |  | 
COc1cccc(NC(=O)C2=C3Nc4c(N5CCOCC5)cccc4N3CCC2=O)c1 [Compound 8] | > 10 | 2.4 |  |  | 
O=C1CCN2C(=C1C(=O)Nc1ccccc1F)Nc1c(N3CCSCC3)cccc12 [Compound 14] | ~3 | 8.43 |  |  | 
CN1C2=C(C(=O)Nc3ccccc3F)C(=O)CCN2c2cccc(N3CCOCC3)c21 [Compound 12] |  | 0.15 |  |  | 
O=C1CCN(c2cccc3c2NC2=C(C(=O)Nc4ccccc4F)C(=O)CCN23)CC1 [Compound 23] | ≤ 3 |  |  |  | 
